Assay results published in US20190047966A1, “NOVEL COMPOUND AND PHARMACOLOGICALLY ACCEPTABLE SALT THEREOF” (MEIJI SEIKA PHARMA CO., LTD., priority 2016, published 2019).
Structures can show the parent of a compound that is named as a salt.

Legend:
[1] = molecular target: T1, human histamine H4 receptor (Homo sapiens, UniProt Q9H3N8); assay: Evaluation of Human H4 Receptor Affinity ([3H]histamine binding); details: inhibition constant Ki, CHO-K1 membrane preparation, read-out: Evaluation of H4 Receptor Affinity
T1 construct: purchased PerkinElmer Inc; host or cells: CHO-K1
Method: Test Example 2: Evaluation of Human H4 Receptor Affinity
Membrane preparation from recombinant CHO-K1 cell expressing the human histamine H4 receptor (PerkinElmer Inc.), radiolabeled ligand 8.2 nM [^3H]histamine (PerkinElmer Inc.), and compounds dissolved in DMSO were reacted at 25° C. for 90 minutes in a buffering solution containing 50 mM tris-hydrochloric acid, pH 7.4, and 1.25 mM EDTA on a 96 well plate, followed by filtration using a GF/B filter (PerkinElmer Inc.) pretreated with 0.3% polyethylenimine. The residue was washed four times with a buffering solution of 50 mM tris-hydrochloric acid, pH 7.4. Thereafter, a scintillation cocktail (MicroScint 20: PerkinElmer Inc.) was added to the GF/B filter, and the radioactivity of each well was measured using a liquid scintillation counter for 96-well (TopCount: PerkinElmer Inc.). The non-specific binding was evaluated in the presence of 1.0 μM histamine. The inhibition constant Ki was calculated from the 50% inhibitory concentration (IC50 value) obtained in each test and the Kd value (5.7 nM) unique to this assay system, according to the Cheng-Prusoff equation.

[2] = molecular target: human histamine H1 receptor (Homo sapiens, UniProt P35367); assay: Evaluation of Human H1 Receptor Affinity ([3H]pyrilamine binding); parameters: purchased PerkinElmer Inc; host or cells: CHO-K1; details: inhibition constant Ki, CHO-K1 membrane preparation
Sequence of human histamine H1 receptor (P35367 whole entry): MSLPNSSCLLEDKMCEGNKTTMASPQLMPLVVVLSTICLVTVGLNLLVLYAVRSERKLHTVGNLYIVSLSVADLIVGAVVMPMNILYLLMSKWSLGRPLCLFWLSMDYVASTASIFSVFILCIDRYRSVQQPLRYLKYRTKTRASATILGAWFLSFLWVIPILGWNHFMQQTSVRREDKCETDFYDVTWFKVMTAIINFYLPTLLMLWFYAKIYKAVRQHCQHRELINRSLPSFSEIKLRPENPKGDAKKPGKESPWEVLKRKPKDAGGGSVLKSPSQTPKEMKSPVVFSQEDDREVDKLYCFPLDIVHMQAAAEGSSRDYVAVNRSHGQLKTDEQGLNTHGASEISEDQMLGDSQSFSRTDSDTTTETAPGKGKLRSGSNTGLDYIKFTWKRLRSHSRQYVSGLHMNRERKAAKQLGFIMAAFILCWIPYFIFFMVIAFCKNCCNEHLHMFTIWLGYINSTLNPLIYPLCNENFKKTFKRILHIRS
Method: Test Example 1: Evaluation of Human H1 Receptor Affinity
Membrane preparation from recombinant CHO-K1 cell expressing the human histamine H1 receptor (PerkinElmer Inc.), radiolabeled ligand 1.2 nM [^3H]pyrilamine (PerkinElmer Inc.), and test compounds dissolved in DMSO were reacted at 25° C. for 3 hours in a buffering solution containing 50 mM tris-hydrochloric acid, pH 7.4, and 5 mM magnesium chloride on a 96 well plate, followed by filtration using a GF/B filter (PerkinElmer Inc.) pretreated with 0.3% polyethylenimine. The residue was washed four times with a buffering solution of 50 mM tris-hydrochloric acid, pH 7.4. Thereafter, a scintillation cocktail (MicroScint 20: PerkinElmer Inc.) was added to the GF/B filter, and the radioactivity of each well was measured using a liquid scintillation counter for 96-well (TopCount: PerkinElmer Inc.). The non-specific binding was evaluated in the presence of 1.0 μM pyrilamine. The inhibition constant Ki was calculated from the 50% inhibitory concentration (IC50 value) obtained in each test and the Kd value (1.1 nM) unique to this assay system, according to the Cheng-Prusoff equation.

Compound	Ki [1]	Ki [2]
Nc1nc2c(c(N3CCN(CCOCc4ccc(C(=O)O)cc4)CC3)n1)CCc1cc(OCc3ccc(Cl)cc3)ccc1-2 [128(b), 4-((2-(4-(2-amino-8-((4-chlorobenzyl)oxy)-5,6-dihydrobenzo[h]quinazolin-4-yl)piperazin-1-yl)ethoxy)methyl)benzoic acid]	< 100 nM	< 100 nM
CCOC(=O)c1csc(COCCN2CCN(c3nc(N)nc4c3CCc3cc(OCc5ccc(Cl)cc5)ccc3-4)CC2)n1 [135(a), ethyl 2-((2-(4-(2-amino-8-((4-chlorobenzyl)oxy)-5,6-dihydrobenzo[h]quinazolin-4-yl)piperazin-1-yl)ethoxy)methyl)thiazole-4-carboxylate]	< 100 nM	< 100 nM
Nc1nc2c(c(N3CCN(CCOCc4nc(C(=O)O)cs4)CC3)n1)CCc1cc(OCc3ccc(Cl)cc3)ccc1-2 [135(b), 2-((2-(4-(2-amino-8-((4-chlorobenzyl)oxy)-5,6-dihydrobenzo[h]quinazolin-4-yl)piperazin-1-yl)ethoxy)methyl)thiazole-4-carboxylic acid dihydrochloride]	< 100 nM	< 100 nM
N#CC1(C(=O)O)CCC(COCCN2CCN(c3nc(N)nc4c3CCc3cc(OCc5ccc(Cl)cc5)ccc3-4)CC2)CC1 (stereo not drawn) [159(b), cis- or trans-4-((2-(4-(2-amino-8-((4-chlorobenzyl)oxy)-5,6-dihydrobenzo[h]quinazolin-4-yl)piperazin-1-yl)ethoxy)methyl)-1-cyanocyclohexane-1-carboxylic acid hydrochloride]	< 100 nM	< 100 nM
CCOC(=O)C1(C#N)CCC(COCCN2CCN(c3nc(N)nc4c3CCc3cc(OCc5ccc(Cl)cc5)ccc3-4)CC2)CC1 (stereo not drawn) [160(a), ethyl trans- or cis-4-((2-(4-(2-amino-8-((4-chlorobenzyl)oxy)-5,6-dihydrobenzo[h]quinazolin-4-yl)piperazin-1-yl)ethoxy)methyl)-1-cyanocyclohexane-1-carboxylate]	100 to 500 nM	< 100 nM
Nc1nc2c(c(N3CCN(CCOCC4(O)CCC(C(=O)O)CC4)CC3)n1)CCc1cc(OCc3ccc(Cl)cc3)ccc1-2 (stereo not drawn) [166(b), cis- or trans-4-((2-(4-(2-amino-8-((4-chlorobenzyl)oxy)-5,6-dihydrobenzo[h]quinazolin-4-yl)piperazin-1-yl)ethoxy)methyl)-4-hydroxycyclohexane-1-carboxylic acid]	100 to 500 nM	< 100 nM
Nc1nc2c(c(N3CCNCC3)n1)CCc1cc(OCc3ccc(Cl)cc3)ccc1-2 [Example 4, 8-((4-chlorobenzyl)oxy)-4-(piperazin-1-yl)-5,6-dihydrobenzo[h]quinazolin-2-amine]	< 100 nM	< 100 nM
Nc1nc2c(c(N3CCN(CCO)CC3)n1)CCc1cc(OCc3ccccc3)ccc1-2 [Example 7, 2-(4-(2-amino-8-(benzyloxy)-5,6-dihydrobenzo[h]quinazolin-4-yl)piperazin-1-yl)ethan-1-ol]	100 to 500 nM	< 100 nM
Nc1nc2c(c(N3CCN(CCOCCOCCO)CC3)n1)CCc1cc(OCc3ccc(Cl)cc3)ccc1-2 [Example 9, 2-(2-(2-(4-(2-amino-8-((4-chlorobenzyl)oxy)-5,6-dihydrobenzo[h]quinazolin-4-yl)piperazin-1-yl)ethoxy)ethoxy)ethan-1-ol]	< 100 nM	< 100 nM
Nc1nc2c(c(N3CCN(CCOC[C@H]4CC[C@@H](C(=O)O)CC4)CC3)n1)CCc1cc(OCc3ccc(OC(F)(F)F)cc3)ccc1-2 [Example 27, cis-4-((2-(4-(2-amino-8-((4-(trifluoromethoxy)benzyl)oxy)-5,6-dihydrobenzo[h]quinazolin-4-yl)piperazin-1-yl)ethoxy)methyl)cyclohexane-1-carboxylic acid dihydrochloride]	< 100 nM	< 100 nM
Nc1nc2c(c(N3CCN(CCO[C@H]4CC[C@H](C(=O)O)CC4)CC3)n1)CCc1cc(OCc3ccc(Cl)cc3)ccc1-2 [Example 28, trans-4-(2-(4-(2-amino-8-((4-chlorobenzyl)oxy)-5,6-dihydrobenzo[h]quinazolin-4-yl)piperazin-1-yl)ethoxy)cyclohexane-1-carboxylic acid]	< 100 nM	< 100 nM

The remaining lines, values ahead:

Ki [1]	Ki [2]	Compound
100 to 500 nM	< 100 nM	COC(=O)c1ccc(COCCN2CCN(c3nc(N)nc4c3CCc3cc(OCc5ccc(Cl)cc5)ccc3-4)CC2)cc1 [128(a), methyl 4-((2-(4-(2-amino-8-((4-chlorobenzyl)oxy)-5,6-dihydrobenzo[h]quinazolin-4-yl)piperazin-1-yl)ethoxy)methyl)benzoate]
100 to 500 nM	< 100 nM	COC(=O)c1ccc(F)c(COCCN2CCN(c3nc(N)nc4c3CCc3cc(OCc5ccc(Cl)cc5)ccc3-4)CC2)c1 [129(a), methyl 3-((2-(4-(2-amino-8-((4-chlorobenzyl)oxy)-5,6-dihydrobenzo[h]quinazolin-4-yl)piperazin-1-yl)ethoxy)methyl)-4-fluorobenzoate]
100 to 500 nM	< 100 nM	COC(=O)c1cccc(OCCCN2CCN(c3nc(N)nc4c3CCc3cc(OCc5ccc(Cl)cc5)ccc3-4)CC2)c1 [131(a), methyl 3-(3-(4-(2-amino-8-((4-chlorobenzyl)oxy)-5,6-dihydrobenzo[h]quinazolin-4-yl)piperazin-1-yl)propoxy)benzoate]
100 to 500 nM	< 100 nM	Nc1nc2c(c(N3CCN(CCCOc4cccc(C(=O)O)c4)CC3)n1)CCc1cc(OCc3ccc(Cl)cc3)ccc1-2 [131(b), 3-(3-(4-(2-amino-8-((4-chlorobenzyl)oxy)-5,6-dihydrobenzo[h]quinazolin-4-yl)piperazin-1-yl)propoxy)benzoic acid]
100 to 500 nM	< 100 nM	CCOC(=O)C1(C#N)CCC(COCCN2CCN(c3nc(N)nc4c3CCc3cc(OCc5ccc(Cl)cc5)ccc3-4)CC2)CC1 (stereo not drawn) [159(a), ethyl cis- or trans-4-((2-(4-(2-amino-8-((4-chlorobenzyl)oxy)-5,6-dihydrobenzo[h]quinazolin-4-yl)piperazin-1-yl)ethoxy)methyl)-1-cyanocyclohexane-1-carboxylate]
< 100 nM	< 100 nM	N#CC1(C(=O)O)CCC(COCCN2CCN(c3nc(N)nc4c3CCc3cc(OCc5ccc(Cl)cc5)ccc3-4)CC2)CC1 (stereo not drawn) [160(b), trans- or cis-4-((2-(4-(2-amino-8-((4-chlorobenzyl)oxy)-5,6-dihydrobenzo[h]quinazolin-4-yl)piperazin-1-yl)ethoxy)methyl)-1-cyanocyclohexane-1-carboxylic acid]
100 to 500 nM	< 100 nM	CCOC(=O)C1CCC(O)(COCCN2CCN(c3nc(N)nc4c3CCc3cc(OCc5ccc(Cl)cc5)ccc3-4)CC2)CC1 (stereo not drawn) [166(a), ethyl cis- or trans-4-((2-(4-(2-amino-8-((4-chlorobenzyl)oxy)-5,6-dihydrobenzo[h]quinazolin-4-yl)piperazin-1-yl)ethoxy)methyl)-4-hydroxycyclohexane-1-carboxylate]
< 100 nM	< 100 nM	Nc1nc2c(c(N3CCNCC3)n1)CCc1cc(OCc3ccccc3)ccc1-2 [Example 5, 8-(benzyloxy)-4-(piperazin-1-yl)-5,6-dihydrobenzo[h]quinazolin-2-amine]
< 100 nM	< 100 nM	Nc1nc2c(c(N3CCNCC3)n1)CCc1cc(OCc3ccc(OC(F)(F)F)cc3)ccc1-2 [Example 6, 4-(piperazin-1-yl)-8-((4-(trifluoromethoxy)benzyl)oxy)-5,6-dihydrobenzo[h]quinazolin-2-amine]
< 100 nM	< 100 nM	Nc1nc2c(c(N3CCN(CCOCCO)CC3)n1)CCc1cc(OCc3ccc(Cl)cc3)ccc1-2 [Example 8, 2-(2-(4-(2-amino-8-((4-chlorobenzyl)oxy)-5,6-dihydrobenzo[h]quinazolin-4-yl)piperazin-1-yl)ethoxy)ethan-1-ol]
< 100 nM	< 100 nM	N#CCOCCOCCN1CCN(c2nc(N)nc3c2CCc2cc(OCc4ccc(Cl)cc4)ccc2-3)CC1 [Example 10, 2-(2-(2-(4-(2-amino-8-((4-chlorobenzyl)oxy)-5,6-dihydrobenzo[h]quinazolin-4-yl)piperazin-1-yl)ethoxy)ethoxy)acetonitrile]
100 to 500 nM	< 100 nM	Nc1nc2c(c(N3CCN(CCO[C@H]4CC[C@@H](C(=O)O)CC4)CC3)n1)CCc1cc(OCc3ccc(Cl)cc3)ccc1-2 [Example 24, cis-4-(2-(4-(2-amino-8-((4-chlorobenzyl)oxy)-5,6-dihydrobenzo[h]quinazolin-4-yl)piperazin-1-yl)ethoxy)cyclohexane-1-carboxylic acid]
